Results from ChEMBL document CHEMBL1201862, “PubChem BioAssay data set” (2004).
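Exposure lasted 48 hours, with cells grown in 96-well plates and compounds tested at five concentrations. GI50 is the concentration that inhibits growth by half.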 Calls of active or inactive are those of the source. No stated cut-off is given here; in the data, active = GI50 up to about 1.1 µM and inactive = higher.

Experiments:
Test in all cases: DTP human tumour cell line panel, 48 h
[1] = test system: DMS-273
[2] = test system: DLD-1
[3] = test system: UACC-62
[4] = test system: HCC 2998
[5] = test system: Malme-3M
[6] = test system: SW-620
[7] = test system: IGROV-1
[8] = test system: K562
[9] = test system: SNB-19
[10] = test system: SF-539
[11] = test system: SNB-75
[12] = test system: RPMI-8226
[13] = test system: CCRF-CEM
[14] = test system: COLO 205
[15] = test system: LXFL 529
[16] = test system: TK-10
[17] = test system: SNB-78
[18] = test system: HCT-116
[19] = test system: SK-OV-3
[20] = test system: HL-60
[21] = test system: CAKI-1
[22] = test system: RXF 393
[23] = test system: SN12C
[24] = test system: A549
[25] = test system: MOLT-4
[26] = test system: OVCAR-4
[27] = test system: SK-MEL-28
[28] = test system: LOX IMVI
[29] = test system: SF-268
[30] = test system: 786-0
[31] = test system: SR
[32] = test system: M14
[33] = test system: HOP-62
[34] = test system: OVCAR-3
[35] = test system: NCI-H460
[36] = test system: KM12
[37] = test system: SK-MEL-2
[38] = test system: HCT-15
[39] = test system: SK-MEL-5
[40] = test system: HOP-18
[41] = test system: M19-MEL
[42] = test system: NCI-H23
[43] = test system: ACHN
[44] = test system: UO-31
[45] = test system: NCI-H226
[46] = test system: EKVX
[47] = test system: A498
[48] = test system: HT-29
[49] = test system: KM-20L2
[50] = test system: SF-295
[51] = test system: OVCAR-8
[52] = test system: DMS-114
[53] = test system: OVCAR-5
[54] = test system: UACC-257
[55] = test system: U-251
[56] = test system: NCI-H522
[57] = test system: HOP-92
[58] = test system: XF498

## CC1(C)COC(c2c(-c3ccccc3)noc2C[S+]([O-])c2ccccc2)=N1 (centres undefined)
[1]
  GI50: 31.2 µM (inactive)
[2]
  GI50: > 100 µM (inactive)
[3]
  GI50: 20.7 µM (inactive)
[4]
  GI50: 32.3 µM (inactive)
[5]
  GI50: 46.1 µM (inactive)
[6]
  GI50: > 100 µM (inactive)
[7]
  GI50: 88.5 µM (inactive)
[8]
  GI50: 40.9 µM (inactive)
[9]
  GI50: > 100 µM (inactive)
[10]
  GI50: 59.6 µM (inactive)
[11]
  GI50: 29.6 µM (inactive)
[12]
  GI50: 22.1 µM (inactive)
[13]
  GI50: 29.2 µM (inactive)
[14]
  GI50: 40.4 µM (inactive)
[15]
  GI50: 30.2 µM (inactive)
[16]
  GI50: > 100 µM (inactive)
[17]
  GI50: 7.48 µM (inactive)
[18]
  GI50: 28.2 µM (inactive)
[19]
  GI50: 72.3 µM (inactive)
[20]
  GI50: 23.9 µM (inactive)
[21]
  GI50: 61.5 µM (inactive)
[22]
  GI50: > 100 µM (inactive)
[23]
  GI50: 31.3 µM (inactive)
[24]
  GI50: 46 µM (inactive)
[25]
  GI50: 22.5 µM (inactive)
[26]
  GI50: 62.8 µM (inactive)
[27]
  GI50: 33.1 µM (inactive)
[28]
  GI50: 41 µM (inactive)
[29]
  GI50: 19.9 µM (inactive)
[30]
  GI50: 76.6 µM (inactive)
[31]
  GI50: 29.1 µM (inactive)
[32]
  GI50: 48.9 µM (inactive)
[33]
  GI50: 31.4 µM (inactive)
[34]
  GI50: > 100 µM (inactive)
[35]
  GI50: 28.3 µM (inactive)
[36]
  GI50: 36.1 µM (inactive)
[37]
  GI50: 24.5 µM (inactive)
[38]
  GI50: 27.4 µM
[39]
  GI50: 38.3 µM (inactive)
[40]
  GI50: 24.9 µM (inactive)
[41]
  GI50: 45.1 µM (inactive)
[42]
  GI50: 32.3 µM (inactive)
[43]
  GI50: 40 µM (inactive)
[44]
  GI50: 29.2 µM (inactive)
[45]
  GI50: 30.3 µM (inactive)
[46]
  GI50: 96.6 µM (inactive)
[47]
  GI50: 20.3 µM (inactive)
[48]
  GI50: 38.5 µM (inactive)
[49]
  GI50: 46.3 µM (inactive)
[50]
  GI50: 34.6 µM (inactive)
[51]
  GI50: 37.3 µM (inactive)
[52]
  GI50: 21.9 µM (inactive)
[53]
  GI50: > 100 µM (inactive)
[54]
  GI50: 52.1 µM (inactive)
[55]
  GI50: 32.5 µM (inactive)
[56]
  GI50: 36.1 µM (inactive)

## COc1ccc(C(C2=C(C)C(=O)c3ccccc3C2=O)c2ccc(C(C)C)cc(=O)c2O)cc1 (centres undefined)
[1]
  GI50: 2.23 µM (inactive)
[2]
  GI50: 4.79 µM (inactive)
[57]
  GI50: 3.57 µM (inactive)
[5]
  GI50: 4.26 µM (inactive)
[6]
  GI50: 6.1 µM (inactive)
[7]
  GI50: 4.16 µM (inactive)
[8]
  GI50: 3.55 µM (inactive)
[10]
  GI50: 2.69 µM (inactive)
[11]
  GI50: 2.59 µM (inactive)
[12]
  GI50: 3.74 µM (inactive)
[13]
  GI50: 3.73 µM (inactive)
[14]
  GI50: 5.31 µM (inactive)
[15]
  GI50: 4.06 µM (inactive)
[17]
  GI50: 5.41 µM (inactive)
[18]
  GI50: 3.81 µM (inactive)
[19]
  GI50: 3.49 µM (inactive)
[20]
  GI50: 2.61 µM (inactive)
[21]
  GI50: 3.03 µM (inactive)
[23]
  GI50: 2.87 µM (inactive)
[24]
  GI50: 3.55 µM (inactive)
[25]
  GI50: 3.47 µM (inactive)
[26]
  GI50: 6.49 µM (inactive)
[28]
  GI50: 3.55 µM (inactive)
[29]
  GI50: 3.77 µM (inactive)
[30]
  GI50: 2.53 µM (inactive)
[31]
  GI50: 3.29 µM (inactive)
[32]
  GI50: 2.53 µM (inactive)
[33]
  GI50: 2.59 µM (inactive)
[34]
  GI50: 2.68 µM (inactive)
[35]
  GI50: 3.78 µM (inactive)
[36]
  GI50: 4.3 µM (inactive)
[37]
  GI50: 1.16 µM (inactive)
[38]
  GI50: 2.58 µM
[39]
  GI50: 5.96 µM (inactive)
[41]
  GI50: 2.22 µM (inactive)
[42]
  GI50: 3.51 µM (inactive)
[43]
  GI50: 3.05 µM (inactive)
[44]
  GI50: 2.12 µM (inactive)
[45]
  GI50: 1.7 µM (inactive)
[46]
  GI50: 2.77 µM (inactive)
[48]
  GI50: 6.04 µM (inactive)
[58]
  GI50: 0.685 µM (active)
[50]
  GI50: 4.7 µM (inactive)
[51]
  GI50: 4.18 µM (inactive)
[52]
  GI50: 2.82 µM (inactive)
[53]
  GI50: 2.06 µM (inactive)
[55]
  GI50: 3.12 µM (inactive)
[56]
  GI50: 13.8 µM (inactive)
